Converted amounts (≈) assume the structure as drawn.
Legend:
[1] = Inhibition of Mycobacterium tuberculosis DprE1 expressed in Escherichia coli BL21 (DE3) using farnesylphosphoryl-beta-D-ribose as substrate
[2] = Kinetic aqueous solubility of the compound in phosphate buffer saline at pH 7.4 after 1 hr by CLND method; assay type: physicochemical; details: phosphate buffered saline, read-out: Kinetic_solubility
[3] = system: Mycobacterium tuberculosis; experiment: Antitubercular activity against wild type Mycobacterium tuberculosis H37Rv ATCC 25618 assessed as bacterial growth inhibition measured after 6 days by resazurin assay; assay type: functional; details: H37Rv ATCC 25618, 144 h
[4] = system: Mycobacterium tuberculosis; experiment: Antibacterial activity against Mycobacterium tuberculosis transfected with pMV261 vector expressing DprE1 assessed as bacterial growth inhibition; assay type: functional
[5] = system: Mycobacterium tuberculosis; experiment: Antitubercular activity against Mycobacterium tuberculosis H37Rv infected in po dosed C57BL/6 mouse model of acute infection assessed as effect on mycobacterial burden in lung pretreated with CYP inhibitor ABT 2 hrs prior followed by compound administration for 8 consecutive days starting from day 1 post-infection and measured after 24 hrs post-last dose; assay type: functional
[6] = system: Mycobacterium tuberculosis; experiment: (§1) Antitubercular activity against Mycobacterium tuberculosis H37Rv infected in po dosed C57BL/6 mouse model of acute infection assessed as reduction in mycobacterial burden in lung administration for 8 consecutive days starting from day 1 post-infection and measured after 24 hrs post-last dose; assay type: functional
HepG2 = experiment: Cytotoxicity against human HepG2 cells assessed as reduction in cell viability measured after 48 hrs by CellTiter-Glo assay; assay type: cell-based; details: HepG2, 48 h
[7] = system: Mycobacterium tuberculosis; experiment: Antitubercular activity against wild type Mycobacterium tuberculosis H37Rv ATCC 25618 transfected with pATB45luc plasmid expressing luciferase infected in human THP1 cells assessed as reduction in bacterial growth after 4 days by BrightGlo luciferase assay; assay type: functional; details: H37Rv ATCC 25618, 96 h
Escherichia coli = experiment: Antibacterial activity against Escherichia coli assessed as bacterial growth inhibition; assay type: functional
Staphylococcus aureus = experiment: Antibacterial activity against Staphylococcus aureus assessed as bacterial growth inhibition; assay type: functional
[8] = Clearance in CD-1 mouse at 1 mg/kg, iv administered as single dose measured up to 24 hrs by LC-MS/MS analysis; assay type: ADME, organism-based; details: in vivo
[9] = Oral bioavailability in CD-1 mouse at 5 mg/kg administered as single dose measured up to 24 hrs by LC-MS/MS analysis; assay type: ADME, organism-based; details: in vivo
[10] = Solubility of the compound in FaSSIF; assay type: physicochemical
[11] = Volume of distribution at steady state in CD-1 mouse at 1 mg/kg, iv administered as single dose measured up to 24 hrs by LC-MS/MS analysis; assay type: ADME, organism-based; details: in vivo, read-out: Vdss
[12] = Half life in CD-1 mouse at 1 mg/kg, iv administered as single dose measured up to 24 hrs by LC-MS/MS analysis; assay type: ADME, organism-based; details: in vivo
[13] = system: Mycobacterium tuberculosis; experiment: as §1, with “in” for “in po dosed”, “at 100 mg/kg, po treated” for “administration”, “dose (reference value: 5.8 log10cfu)” for “dose”; assay type: functional

Structure (SMILES)	pIC50 [1]	MIC90 [3]	further results
CC1CCN(C(=O)C2CCN(c3nnc(-n4cccc4)s3)CC2)CC1	6.3	20.8 µM (≈ 7.48 µg/mL)	solubility kinetic at 1 h [2]: 328 µM (≈ 118 µg/mL)
O=C(C1CCN(c2nnc(-n3cccc3)s2)CC1)N1CCC(Cc2ccccc2)CC1	7.3	4 µM (≈ 1.74 µg/mL)	solubility kinetic at 1 h [2]: < 1 µM
COc1ncnc(Cn2cc(C(=O)NCCF)c3ncccc32)c1C	7.4	4 µM (≈ 1.37 µg/mL)	MIC90 [4]: > 125 µM; ED99 [5]: 11 mg/kg; ED99 [6]: 164 mg/kg; IC50 (HepG2): > 100 µM; MIC90 [7]: 0.62 µM (≈ 0.213 µg/mL); solubility kinetic at 1 h [2]: 26 µM (≈ 8.93 µg/mL)
CCN(CC)CCC1CCN(C(=O)C2CCN(c3cc(N4CCOCC4)ncn3)CC2)CC1	< 4	> 125 µM	
CC(C)C1CCN(C(=O)C2CCN(c3cccc(N4CCOCC4)n3)CC2)CC1	5	> 125 µM	
O=C(C1CCN(c2cc(N3CCOCC3)ncn2)CC1)N1CCC(Cc2ccccc2)CC1	7.6	0.6 µM (≈ 0.27 µg/mL)	MIC90 [4]: > 16 µM; MIC (Escherichia coli): > 128 µg/mL; MIC (Staphylococcus aureus): > 128 µg/mL; MIC90 [7]: 0.07 µM (≈ 0.0315 µg/mL); solubility kinetic at 1 h [2]: 280 µM (≈ 126 µg/mL)
CC1CCN(C(=O)C2CCN(c3cc(N4CCCC4)ncn3)CC2)CC1	5.9	23.4 µM (≈ 8.37 µg/mL)	
CC(C)C1CCN(C(=O)C2CCN(c3cc(N4CCOCC4)ncn3)CC2)CC1	7.1	4 µM (≈ 1.61 µg/mL)	
O=C(C1CCN(c2ccncn2)CC1)N1CCC(Cc2ccccc2)CC1	4.8	> 125 µM	
CC1CCN(C(=O)C2CCN(c3cc(N(C)C)ncn3)CC2)CC1	5	125 µM (≈ 41.4 µg/mL)	
c1nc(N2CCCCC2)cc(N2CCOCC2)n1	4.1		
O=C(C1CCN(c2cc(N3CCOCC3)ncn2)CC1)N1CCC(CCN2CCCC2)CC1	4.1	> 125 µM	
O=C(C1CCN(c2cc(N3CCOCC3)ncn2)CC1)N1CCC(Cc2ccccc2)C1 (configuration not stated)	6.9	4 µM (≈ 1.74 µg/mL)	
CC(C)C1CCN(C(=O)C2CCN(c3cc(N4CCOCC4)ccn3)CC2)CC1	5.2	> 125 µM	
CN1CCN(c2cc(N3CCC(C(=O)N4CCC(Cc5ccccc5)CC4)CC3)ncn2)CC1	4.7	125 µM (≈ 57.8 µg/mL)	
O=C(C1CCN(c2cc(N3CCOCC3)ncn2)CC1)N1CCC(Oc2ccc(Cl)cc2)CC1	7.5	1.5 µM (≈ 0.729 µg/mL)	
CC(C)C1CCN(C(=O)C2CCN(c3ccnc(N4CCOCC4)c3)CC2)CC1	5.1	> 125 µM	
CC(=O)N1CCC(C(=O)N2CCC(C)CC2)CC1	< 3		
O=C(C1CCN(c2cc(N3CCOCC3)ncn2)CC1)N1CCC(O)(Cc2ccccc2)CC1	5.8	10 µM (≈ 4.66 µg/mL)	

Structure (SMILES)	pIC50 [1]	MIC90 [3]	further results
O=C(C1CCN(c2cc(N3CCOCC3)ncn2)CC1)N1CCCC(Cc2ccccc2)C1 (configuration not stated)	6.2	32 µM (≈ 14.4 µg/mL)	
O=C(C1CCN(c2cc(N3CCOCC3)ncn2)CC1)N1CCC(Nc2ccccc2)CC1	6.4	10 µM (≈ 4.51 µg/mL)	
CC(=O)N1CCC(C(=O)N2CCC(Cc3ccccc3)CC2)CC1	< 4		
O=c1nc(N2CCOCC2)cc(N2CCCCC2)[nH]1	4.5		
O=C(C1CCN(c2cc(N3CCCCC3)ncn2)CC1)N1CCC(Cc2ccccc2)CC1	7.1	2.5 µM (≈ 1.12 µg/mL)	solubility kinetic at 1 h [2]: 28 µM (≈ 12.5 µg/mL)
CC(=O)N1CCN(c2cc(N3CCOCC3)ncn2)CC1	< 4		
O=C(C1CCN(c2cc(N3CCOCC3)ncn2)CC1)N1CCC(Oc2ccc(Cl)cc2F)CC1	7.7	0.5 µM (≈ 0.252 µg/mL)	
O=C(C1CCN(c2cc(N3CCOCC3)ncn2)CC1)N1CCN(c2ccc(F)cc2)CC1	6.2	20 µM (≈ 9.09 µg/mL)	
CC1CCN(C(=O)C2CCN(c3cc(N4CCCCC4)ncn3)CC2)CC1	6.5	15.6 µM (≈ 5.8 µg/mL)	solubility kinetic at 1 h [2]: > 488 µM
O=C(C1CCN(c2cc(N3CCOCC3)ncn2)CC1)N1CCc2ccccc2C1	6.5	10 µM (≈ 4.08 µg/mL)	
FC1(F)CCN(c2cc(N3CCOCC3)ncn2)C1	4.1		
O=C(C1CCN(c2ncnc(N3CCOCC3)c2F)CC1)N1CCC(Cc2ccccc2)CC1	7.2	1.3 µM (≈ 0.608 µg/mL)	
O=C(C1CCN(c2cc(N3CCOCC3)[nH]c(=O)n2)CC1)N1CCC(Cc2ccccc2)CC1	7.4	3 µM (≈ 1.4 µg/mL)	
O=C(C1CCN(c2cc(N3CCOCC3)ncn2)CC1)N1CCC(Cc2cccnc2)CC1	7	3.3 µM (≈ 1.49 µg/mL)	
Nc1nc(N2CCOCC2)cc(N2CCC(C(=O)N3CCC(Cc4ccccc4)CC3)CC2)n1	7.3	3.5 µM (≈ 1.63 µg/mL)	
CC1CCN(C(=O)C2CCN(c3cc(NC4CCCC4)ncn3)CC2)CC1	4.7	> 125 µM	
O=C(C1CCN(c2cc(N3CCOCC3)ncn2)CC1)N1CCC(CC2CCCC2)CC1	7.6	3 µM (≈ 1.32 µg/mL)	
c1nc(N2CCOCC2)cc(N2CCC3(CCCO3)CC2)n1	4.1		
CN(C)c1cc(N2CCCCC2)ncn1	3.9		

Structure (SMILES)	pIC50 [1]	MIC90 [3]	further results
O=C(C1CCN(c2cc(N3CCOCC3)ncn2)CC1)N1CCC(Oc2ccccc2)CC1	8.1	2 µM (≈ 0.903 µg/mL)	
O=C(c1ccc(F)cc1)N1CCN(C(=O)C2CCN(c3cc(N4CCOCC4)ncn3)CC2)CC1	4.6	> 80 µM	
O=C(C1CCN(c2nccc(N3CCCCC3)n2)CC1)N1CCC(Cc2ccccc2)CC1	6.8	16 µM (≈ 7.16 µg/mL)	
c1nc(N2CCCCC2)cc(N2CCCCC2)n1	4.1		
O=C(C1CCN(c2cc(N3CCOCC3)ncn2)CC1)N1CCC(Cc2ccc(F)cc2)CC1	7.6	0.6 µM (≈ 0.281 µg/mL)	clearance [8]: 38.9 mL/min/kg; MIC90 [4]: 15 µM (≈ 7.01 µg/mL); bioavailability [9]: 100%; solubility [10]: 40 µM (≈ 18.7 µg/mL); Vd [11]: 1.3 L/kg; ED99 [6]: 30 mg/kg; IC50 (HepG2): 50.1 µM; half-life [12]: 27 min; MIC90 [7]: 0.21 µM (≈ 0.0982 µg/mL); solubility kinetic at 1 h [2]: 160 µM (≈ 74.8 µg/mL)
CC1(C)CCCN(c2cc(N3CCOCC3)ncn2)C1	4.6		
O=C(C1CCN(c2cc(N3CCCCC3)ncn2)CC1)N1CCCCC1	5.8	35.6 µM (≈ 12.7 µg/mL)	solubility kinetic at 1 h [2]: > 405 µM
O=C(C1CCN(c2cc(N3CCOCC3)ncn2)CC1)N1CCCCC1Cc1ccccc1 (configuration not stated)	5.4	125 µM (≈ 56.2 µg/mL)	
CC1CCN(C(=O)C2CCN(c3cc(N4CCOCC4)ncn3)CC2)CC1	6	15.6 µM (≈ 5.83 µg/mL)	
c1nc(N2CCCCCC2)cc(N2CCOCC2)n1	< 4		
O=C(C1CCN(c2cc(N3CCOCC3)ncn2)CC1)N1CCOC(Cc2ccccc2)C1 (configuration not stated)	5.2	> 125 µM	
O=C(C1CCN(c2cncc(N3CCOCC3)n2)CC1)N1CCC(Cc2ccccc2)CC1	7.4	3 µM (≈ 1.35 µg/mL)	
CC(C)N(C)c1cc(N2CCOCC2)ncn1	< 4		
CCC1CCN(C(=O)C2CCN(c3cc(N4CCOCC4)ncn3)CC2)CC1	6.8	8 µM (≈ 3.1 µg/mL)	
O=C(C1CCN(c2cc(N3CCOCC3)ncn2)CC1)N1CCC(Oc2ccc(F)cc2F)CC1	7.5	1 µM (≈ 0.488 µg/mL)	
O=C(C1CCN(c2cc(N3CCOCC3)ncn2)CC1)N1CCC(Cc2ccccn2)CC1	6.6	8.8 µM (≈ 3.97 µg/mL)	
O=C(C1CCN(c2cc(N3CCOCC3)ncn2)CC1)N1CCC(Oc2ccc(F)cc2)CC1	7.3	1.7 µM (≈ 0.798 µg/mL)	clearance [8]: 23.5 mL/min/kg; MIC90 [4]: 62 µM (≈ 29.1 µg/mL); bioavailability [9]: 78.7%; solubility [10]: 74 µM (≈ 34.7 µg/mL); Vd [11]: 1.7 L/kg; ED99 [6]: 29 mg/kg; IC50 (HepG2): 31.6 µM; half-life [12]: 60 min; MIC90 [7]: 0.62 µM (≈ 0.291 µg/mL); solubility kinetic at 1 h [2]: ≥ 364 µM
Cc1ccc(OC2CCN(C(=O)C3CCN(c4cc(N5CCOCC5)ncn4)CC3)CC2)nc1	6.2	16 µM (≈ 7.47 µg/mL)	
COc1c(N2C[C@@H]3CCCN[C@@H]3C2)c(F)cc2c(=O)c(C(=O)O)cn(C3CC3)c12 [MOXIFLOXACIN]			Activity [13]: 2.7 log10CFU
